Test results published in patent US8628864B2, “Indolo[3,2,1-jk]carbazole compound and organic light-emitting device containing the same” (Canon Kabushiki Kaisha, priority 2010, dated 2014).

Key:
Format in all cases: physicochemical
[1] = Color of evaporated film on glass substrate left to stand in the air; details: in the air at room temperature, approximately two hours
[2] = Ionization potential of evaporated thin film, photoelectron spectrometer AC-3
Description: The ionization potential of the evaporated thin film used in the measurement of the energy gap described above was measured with a photoelectron spectrometer AC-3 (manufactured by Riken Keiki Co., Ltd.). The ionization potential of the exemplary compound C-1 was 6.01 eV.

[3] = Solubility: amount of chlorobenzene required to dissolve 10 mg of compound; details: 10 mg compound
Description: The amount of chlorobenzene required to dissolve 10 mg of the exemplary compound C-1 was determined. As a result, the amount of chlorobenzene required to dissolve 10 mg of the exemplary compound C-1 was 1 ml or less.

SMILES: c1ccc2c(c1)c1cc(-c3ccc(-c4cc5c6ccccc6n6c7ccccc7c(c4)c56)cc3)cc3c4ccccc4n2c13 [FH-02]
- Color of film 2 h after film formation [1]: pale yellowish brown
- Ionization potential [2]: 5.72 eV
- Amount of chlorobenzene required to dissolve 10 mg of compound [3]: 10 mL

SMILES: c1ccc2c(c1)c1cc(-c3cc(-c4cc5c6ccccc6n6c7ccccc7c(c4)c56)cc(-c4cc5c6ccccc6n6c7ccccc7c(c4)c56)c3)cc3c4ccccc4n2c13 [FH-01]
- Color of film 2 h after film formation [1]: pale yellowish brown
- Ionization potential [2]: 5.83 eV
- Amount of chlorobenzene required to dissolve 10 mg of compound [3]: 50 or more ml
